{"source": "patent US9139502B2", "about": "“Use of an urushiol compound in preparation of pharmaceutical compositions for inhibiting Smad3 phosphorylation” (Southern Hospital, Southern Medical University, priority 2013, dated 2015)", "key": {"[1]": {"system": "Smad4", "experiment": "Western blot of Smad4 expression in UUO kidneys", "format": "in vivo, rat", "conditions": "UUO rats, GQ-5 40 mg/kg daily i.p. right after UUO, sacrificed day 14", "procedure": "Male Sprague-Dawley rats with body weight 200 to 250 g were randomized into 3 groups (n=6 in each group): (1) sham operated rats; (2) UUO rats; (3) UUO+GQ-5 rats.\nGQ-5 was dissolved in 5% propylene glycol.\n(3) UUO+GQ-5 rats: daily intraperitoneal injection of GQ-5 (40 mg/kg body weight) right after UUO;\nUUO was performed using an established protocol as described. GQ-5 was dissolved in 5% propylene glycol. Rats were administrated with GQ-5 as described before. All the rats were sacrificed 14 days after UUO. Western blot analyses were performed to examine the Smad4, Smad7 expression and p38, PI3K, ERK phosphorylation."}, "[2]": {"system": "Smad2", "experiment": "Immunofluorescence staining of Smad2 nuclear translocation", "format": "cell-based, rat", "conditions": "NRK52E cells, GQ-5 2.5 μM pre-treated 1 h, TGF-β1 10 ng/ml 2 h", "procedure": "(§1) NRK52E cells were cultured in DMEM-Ham's medium supplemented with 10% fetal bovine serum. The cells reached at approximately 50% confluence were used for in vitro experiments. Cells were serum-starved for 12 h, and randomized into 3 groups: (1) Controls; (2) TGF-β1 only; (3) TGF-β1+GQ-5.\n(2) TGF-β1 only: pre-treated with DMSO for 1 h, followed with TGF-β1 (10 ng/ml) for 2 h\n(3) TGF-β1+GQ-5: pre-treated with GQ-5 (2.5 μM) for 1 h, followed with TGF-β1 (10 ng/ml) for 2 h\nGQ-5 was dissolved in DMSO. Cells were treated as described Immunofluorescence staining was performed to examine the nuclear translocation of Smad2, Smad3, and Smad4."}, "[3]": {"system": "Smad7", "experiment": "Western blot of Smad7 expression in vitro", "format": "cell-based, rat", "conditions": "NRK52E and NRK49F cells, GQ-5 2.5 nM pre-treated 1 h, TGF-β1 10 ng/ml 1 h", "procedure": "(§2) NRK52E and NRK49F cells were cultured in DMEM-Ham's medium (Gibco, Life Techologies, NY, USA) supplemented with 10% fetal bovine serum (Gibco, Life Techologies, NY, USA). The cells reached at approximately 50% confluence were used for in vitro experiments. Cells were serum-starved for 12 h, and randomized into 4 groups: (1) Controls; (2) GQ-5 only; (3) TGF-β1 only; (4) TGF-β1+GQ-5\n(§3) (2) GQ-5 only: pre-treated with GQ-5 (2.5 μM) for 1 h, followed with DMEM for 1 h\n(§4) (3) TGF-β1 only: pre-treated with DMSO (0.1%) for 1 h, followed with TGF-β1 (10 ng/ml) for 1 h\n(§5) (4) TGF-β1+GQ-5: pre-treated with GQ-5 (2.5 nM) for 1 h, followed with TGF-β1 (10 ng/ml) for 1 h\n(§6) GQ-5 was dissolved in DMSO. Cells were treated as described. cell lysates were immunoblotted with antibodies against Smad4, Smad7, phospho-p38, p38, phospho-PI3K, PI3K, phosphor-ERK, and ERK."}, "[4]": {"system": "collagen I", "experiment": "Real-time PCR of TGF-β1-induced collagen I mRNA in vitro", "format": "cell-based, rat", "conditions": "NRK 52E and NRK 49F cells, GQ-5 0.1-2.5 μM pre-treated 1 h, TGF-β1 10 ng/ml 36 h", "procedure": "as §1, with “NRK52E and NRK49F” for “NRK52E”, “6” for “3”, “(2) GQ-5 only; (3)” for “(2)”, “(4) TGF-β1+GQ-5 0.1 μM; (5) TGF-β1+GQ-5 0.5 μM; (6) TGF-β1+GQ-5 2.5 μM” for “(3) TGF-β1+GQ-5.”\n(2) GQ-5 only: pre-treated with GQ-5 (2.5 μM) for 1 h, followed with DMEM for 36 h\n(3) TGF-β1 only: pre-treated with DMSO for 1 h, followed with TGF-β1 (10 ng/ml) for 36 h\n(4) TGF-β1+GQ-5 0.1 μM: pre-treated with GQ-5 (0.1 μM) for 1 h, followed with TGF-β1 (10 ng/ml) for 36 h\n(5) TGF-β1+GQ-5 0.5 μM: pre-treated with GQ-5 (0.5 μM) for 1 h, followed with TGF-β1 (10 ng/ml) for 36 h\n(6) TGF-β1+GQ-5 2.5 μM: pre-treated with GQ-5 (2.5 μM) for 1 h, followed with TGF-β1 (10 ng/ml) for 36 h\nGQ-5 was dissolved in DMSO. Cells were treated as described. Cells were collected for mRNA extraction. Real-rime PCR was performed to examine the mRNA expression of α-SMA, collagen I and fibronectin."}, "[5]": {"target": "interaction of Smad3 with TβRI (Rattus norvegicus, UniProt P84025)", "sequence (P84025 whole entry)": "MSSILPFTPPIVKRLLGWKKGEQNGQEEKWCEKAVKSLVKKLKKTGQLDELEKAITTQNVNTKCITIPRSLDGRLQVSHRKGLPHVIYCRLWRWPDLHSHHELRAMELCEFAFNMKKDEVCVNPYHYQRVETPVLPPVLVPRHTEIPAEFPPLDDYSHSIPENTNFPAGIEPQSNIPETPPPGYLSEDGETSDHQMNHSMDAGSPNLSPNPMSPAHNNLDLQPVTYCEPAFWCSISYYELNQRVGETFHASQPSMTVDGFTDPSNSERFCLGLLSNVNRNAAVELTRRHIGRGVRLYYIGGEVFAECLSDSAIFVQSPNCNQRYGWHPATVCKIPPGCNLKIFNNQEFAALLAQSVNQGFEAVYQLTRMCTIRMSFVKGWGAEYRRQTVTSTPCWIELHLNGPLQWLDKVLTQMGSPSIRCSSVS", "experiment": "Immunoprecipitation of Smad3 with TβRI in vitro", "format": "cell-based", "conditions": "NRK52E cells, GQ-5 2.5 nM pre-treated 1 h, TGF-β1 10 ng/ml 1 h", "procedure": "as §1, with “4” for “3”, “(2) GQ-5 only; (3)” for “(2)”, “(4) TGF-β1+GQ-5” for “(3) TGF-β1+GQ-5.”\n(§7) (2) GQ-5 only: pre-treated with GQ-5 (2.5 nM) for 1 h, followed with DMEM for 1 h\n(§8) (3) TGF-β1 only: pre-treated with DMSO for 1 h, followed with TGF-β1 (10 ng/ml) for 1 h\nas §5\n(§9) GQ-5 was dissolved in DMSO. Cells were treated as described. Cell lysates were collected for immunoprecipitation to examine the interaction among TGFβ type I receptor (TβRI), TβRII, Smad3 and Smad2."}, "[6]": {"system": "p38", "experiment": "Western blot of TGF-β1-induced p38 phosphorylation in vitro", "format": "cell-based, rat", "conditions": "NRK52E and NRK49F cells, GQ-5 2.5 nM pre-treated 1 h, TGF-β1 10 ng/ml 1 h", "procedure": "as §2, §3, §4, §5, §6"}, "[7]": {"target": "interaction of Smad2 with TβRI (Rattus norvegicus, UniProt O70436)", "sequence (O70436 whole entry)": "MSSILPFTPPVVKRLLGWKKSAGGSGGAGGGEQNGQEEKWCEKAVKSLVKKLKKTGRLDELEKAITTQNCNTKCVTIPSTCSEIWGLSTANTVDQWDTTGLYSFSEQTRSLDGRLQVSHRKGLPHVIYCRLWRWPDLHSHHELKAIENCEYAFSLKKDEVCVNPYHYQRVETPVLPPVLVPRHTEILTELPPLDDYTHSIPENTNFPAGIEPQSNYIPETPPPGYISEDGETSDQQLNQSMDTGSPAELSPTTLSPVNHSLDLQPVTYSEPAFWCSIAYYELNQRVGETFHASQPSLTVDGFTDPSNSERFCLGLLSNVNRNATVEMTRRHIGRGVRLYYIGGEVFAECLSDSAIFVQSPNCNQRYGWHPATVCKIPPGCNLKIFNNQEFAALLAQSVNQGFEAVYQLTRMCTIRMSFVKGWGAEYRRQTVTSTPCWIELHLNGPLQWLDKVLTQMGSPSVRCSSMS", "experiment": "Immunoprecipitation of Smad2 with TβRI in vitro", "format": "cell-based", "set-up": "endogenous in cells; host or cells: NRK52E", "conditions": "NRK52E cells, GQ-5 2.5 nM pre-treated 1 h, TGF-β1 10 ng/ml 1 h", "procedure": "as §1, with “4” for “3”, “(2) GQ-5 only; (3)” for “(2)”, “(4) TGF-β1+GQ-5” for “(3) TGF-β1+GQ-5.”\nas §7, §8, §5, §9"}, "[8]": {"system": "NRK52E cells", "experiment": "MTT cell viability test", "format": "cell-based, rat", "conditions": "GQ-5 0.25-4 μM, 1 h", "procedure": "To test the toxicity of GQ-5, rat proximal tubular cells (NRK52E) were seeded into 96-well plates in a volume of 200 μl per well (1×10^5 cell/ml) and incubated for 24 hours to allow cells to attach. The cells were then incubated with indicated amount of GQ-5 for 1 h. Cell viability was determined by addition of 20 μl of 3-(4,5-dimethylthiazol-2-yl)-2, 5-diphenyltetrazolium bromide (MTT) at a concentration of 5 mg/ml. After incubation for 4 hours, the medium was removed and 150 μl of DMSO was added to dissolve the formazan crystals. The absorbance was read at 540 nm by using iMark™Microplate Reader (Bio-Rad)."}}, "data": [{"smiles": "CCCCCC/C=C\\CCCCCCCc1cccc(O)c1O", "note": "[GQ-5, 3-[(Z)-pentadec-8-enyl]catechol]", "values": [{"measurement": "expression of Smad4", "setting": "[1]", "value": "did not affect"}, {"measurement": "nuclear translocation of Smad2", "setting": "[2]", "value": "also reduced"}, {"measurement": "protein expression of Smad7", "setting": "[3]", "value": "did not affect"}, {"measurement": "TGF-β1-induced mRNA expression of collagen I", "setting": "[4]", "value": "significantly inhibited"}, {"measurement": "interaction of Smad3 with TβRI", "setting": "[5]", "value": "significantly blocked"}, {"measurement": "TGF-β1-induced phosphorylation of p38", "setting": "[6]", "value": "did not affect"}, {"measurement": "interaction of Smad2 with TβRI", "setting": "[7]", "value": "did not affect"}, {"measurement": "viability and proliferation of the cells (MTT)", "setting": "[8]", "value": "did not affect"}]}]}
